Assay results from patent publication EP3362444B1, “COMPOUNDS” (Exonate Limited, priority 2015, dated 2017).
pIC50: −log10 of the molar value.

Target: T1, SRPK1 (Homo sapiens, UniProt Q96SB4)
T1 construct: 0.1 µg of purified SRPK1 kinase
Assay: In vitro kinase assay (Kinase-Glo), SRPK1 inhibition
Format: biochemical
Details: for pIC50: SRPK1 inhibition assay, 1 µM ATP, SRSF1 RS peptide, 30°C 10 minutes
Description: Candidate compounds were tested for SRPK1 inhibition using a Kinase-Glo assay (Promega, Southampton, UK32). […] Candidate compounds were serially diluted from 10 µM to 0.5 nM and added to the reaction mixture, wells with omitted SRPK1 kinase and omitted compounds were also added as controls. All wells contained 1% DMSO (Fisher Scientific, Loughborough, UK). One micromolar ATP was added, wells minus ATP were used as background controls. The plate was then incubated at 30°C for 10 minutes. An equal volume of Kinase-Glo (25 µL; Promega) was added to each well and the plate read for luminescence using a Fluostar Optima (BMG Labtech) .

T1 sequence (Q96SB4 whole entry): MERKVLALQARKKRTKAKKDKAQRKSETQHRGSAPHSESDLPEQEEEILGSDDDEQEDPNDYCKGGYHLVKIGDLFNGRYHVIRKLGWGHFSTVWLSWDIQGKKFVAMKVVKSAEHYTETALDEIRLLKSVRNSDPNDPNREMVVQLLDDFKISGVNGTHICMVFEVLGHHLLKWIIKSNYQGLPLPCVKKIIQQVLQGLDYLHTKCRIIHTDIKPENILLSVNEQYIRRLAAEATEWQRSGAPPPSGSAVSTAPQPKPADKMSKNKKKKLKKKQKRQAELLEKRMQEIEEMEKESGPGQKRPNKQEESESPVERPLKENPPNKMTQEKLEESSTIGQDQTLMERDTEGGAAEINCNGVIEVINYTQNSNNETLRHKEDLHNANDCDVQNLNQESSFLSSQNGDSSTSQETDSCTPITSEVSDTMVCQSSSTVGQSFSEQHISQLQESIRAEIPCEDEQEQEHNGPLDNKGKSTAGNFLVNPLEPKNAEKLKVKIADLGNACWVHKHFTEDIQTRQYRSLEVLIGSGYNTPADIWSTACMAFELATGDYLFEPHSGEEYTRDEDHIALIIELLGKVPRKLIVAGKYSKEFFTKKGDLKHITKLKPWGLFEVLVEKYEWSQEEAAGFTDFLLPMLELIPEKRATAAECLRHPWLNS

| SMILES | pIC50 | potency against SRPK1 relative to analogous compounds in which R3 is a pyridyl ring (by kinase assay or differential scanning fluorimetry, Figures 1 and 2) |
| --- | --- | --- |
| O=C(Nc1cc(C(F)(F)F)ccc1N1CCN(Cc2cocn2)CC1)c1cnccn1 [Compound 52, N-(2-(4-(oxazol-4-ylmethyl)piperazin-1-yl)-5-(trifluoro-methyl)phenyl)pyrazine-2-carboxamide] | 6.79 |  |
| O=C(Nc1cc(C(F)(F)F)ccc1N1CCN(Cc2cocn2)CC1)c1cocn1 [Compound 57, N-(2-(4-(oxazol-4-ylmethyl)piperazin-1-yl)-5-(trifluoro-methyl)phenyl)oxazole-4-carboxamide] | 6.93 |  |
| O=C(Nc1cc(C(F)(F)F)ccc1N1CCN(Cc2cncs2)CC1)c1ccccn1 [Compound 32, N-(2-(4-(thiazol-5-ylmethyl)piperazin-1-yl)-5-(trifluoromethyl)phenyl)-picolinamide] | 9.30 |  |
| O=C(Nc1cc(C(F)(F)F)ccc1N1CCN(Cc2cscn2)CC1)c1ccccn1 [Compound 31, N-(2-(4-(thiazol-4-ylmethyl)piperazin-1-yl)-5-(trifluoromethyl)phenyl)-picolinamide] | 8.17 |  |
| O=C(Nc1cc(C(F)(F)F)ccc1N1CCN(Cc2cocn2)CC1)c1nc2ccccc2o1 [Compound 55, N-(2-(4-(oxazol-4-ylmethyl)piperazin-1-yl)-5-(trifluoromethyl)phenyl)benzo[d]oxazole-2-carboxamide] | 5.74 |  |
| O=C(Nc1cc(C(F)(F)F)ccc1N1CCN(Cc2cocn2)CC1)c1ccccn1 [Compound 36, N-(2-(4-(oxazol-4-ylmethyl)piperazin-1-yl)-5-(trifluoromethyl)phenyl)-picolinamide] | 7.67 |  |
| O=C(Nc1cc(C(F)(F)F)ccc1N1CCN(Cc2cnoc2)CC1)c1ccccn1 [Compound 67, N-(2-(4-(isoxazol-4-ylmethyl)piperazin-1-yl)-5-(trifluoro-methyl)phenyl)-picolinamide] | 8.06 |  |
| O=C(Nc1cc(C(F)(F)F)ccc1N1CCN(Cc2cc[nH]n2)CC1)c1ccccn1 [Compound 33, N-(2-(4-((1H-pyrazol-3-yl)methyl)piperazin-1-yl)-5-(trifluoromethyl)-phenyl)picolinamide] | 7.90 |  |
| O=C(Nc1cc(C(F)(F)F)ccc1N1CCN(Cc2cocn2)CC1)c1cc[nH]n1 [Compound 53, N-(2-(4-(oxazol-4-ylmethyl)piperazin-1-yl)-5-(trifluoro-methyl)phenyl)-1H-pyrazole-3-carboxamide] | 7.08 |  |
| O=C(Nc1cc(C(F)(F)F)ccc1N1CCN(Cc2c[nH]c3ccccc23)CC1)c1ccccn1 [Compound 38, N-(2-(4-((1H-indol-3-yl)methyl)piperazin-1-yl)-5-(trifluoromethyl)phenyl)picolinamide] | 7.50 |  |
| O=C(Nc1cc(C(F)(F)F)ccc1N1CCN(Cc2cocn2)CC1)c1ccccc1 [Compound 71, N-(2-(4-(oxazol-4-ylmethyl)piperazin-1-yl)-5-(trifluoromethyl)phenyl) benzamide] | 6.14 |  |
| Cn1ccc(CN2CCN(c3ccc(C(F)(F)F)cc3NC(=O)c3ccccn3)CC2)n1 [Compound 34, N-(2-(4-((1-methyl-1H-pyrazol-3-yl)methyl)piperazin-1-yl)-5-(trifluoromethyl)phenyl)picolinamide] | 7.57 |  |
| O=C(Nc1cc(C(F)(F)F)ccc1N1CCN(Cc2cocn2)CC1)c1ccncn1 [Compound 56, N-(2-(4-(oxazol-4-ylmethyl)piperazin-1-yl)-5-(trifluoro-methyl)phenyl)pyrimidine-4-carboxamide] | 6.87 |  |
| O=C(Nc1cc(C(F)(F)F)ccc1N1CCN(Cc2cocn2)CC1)c1ncccn1 [Compound 54, N-(2-(4-(oxazol-4-ylmethyl)piperazin-1-yl)-5-(trifluoro-methyl)phenyl)pyrimidine-2-carboxamide] | 6.46 |  |
| O=C(Nc1cc(C(F)(F)F)ccc1N1CCN(Cc2cocn2)CC1)c1ncco1 [Compound 42, N-(2-(4-(oxazol-4-ylmethyl)piperazin-1-yl)-5-(trifluoro-methyl)phenyl)oxazole-2-carboxamide] | 5.90 |  |

Next, values leading:

| pIC50 | potency against SRPK1 relative to analogous compounds in which R3 is a pyridyl ring (by kinase assay or differential scanning fluorimetry, Figures 1 and 2) | SMILES |
| --- | --- | --- |
| 6.25 |  | O=C(Nc1cc(C(F)(F)F)ccc1N1CCN(Cc2cocn2)CC1)c1ccno1 [Compound 50, N-(2-(4-(oxazol-4-ylmethyl)piperazin-1-yl)-5-(trifluoro-methyl)phenyl)isoxazole-5-carboxamide] |
| 8.28 |  | O=C(Nc1cc(C(F)(F)F)ccc1N1CCN(Cc2ccoc2)CC1)c1ccccn1 [Compound 72, N-(2-(4-(furan-3-ylmethyl)piperazin-1-yl)-5-(trifluoromethyl)phenyl)picolinamide] |
| 6.93 |  | Cc1nnc(CN2CCN(c3ccc(C(F)(F)F)cc3NC(=O)c3ccco3)CC2)o1 [Compound 49, N-(2-(4-((5-methyl-1,3,4-oxadiazol-2-yl)methyl)piperazin-1-yl)-5-(trifluoromethyl)phenyl)furan-2-carboxamide] |
| 7.22 |  | O=C(Nc1cc(C(F)(F)F)ccc1N1CCN(Cc2cocn2)CC1)c1ccco1 [Compound 39, N-(2-(4-(oxazol-4-ylmethyl)piperazin-1-yl)-5-(trifluoro-methyl)-phenyl)furan-2-carboxamide] |
| 7.49 |  | Cc1ccc(CN2CCN(c3ccc(C(F)(F)F)cc3NC(=O)c3ccco3)CC2)o1 [Compound 48, N-(2-(4-((5-methylfuran-2-yl)methyl)piperazin-1-yl)-5-(trifluoromethyl)phenyl)furan-2-carboxamide] |
| 8.55 |  | O=C(Nc1cc(C(F)(F)F)ccc1N1CCN(Cc2ccno2)CC1)c1ccccn1 [Compound 62, N-(2-(4-(isoxazol-5-ylmethyl)piperazin-1-yl)-5-(trifluoro-methyl)phenyl)picolinamide] |
| 8.74 |  | Cc1ccc(C(=O)Nc2cc(C(F)(F)F)ccc2N2CCN(Cc3ccoc3)CC2)o1 [Compound 45, N-(2-(4-(furan-3-ylmethyl)piperazin-1-yl)-5-(trifluoromethyl)phenyl)-5-methylfuran-2-carboxamide] |
| 8.43 |  | Cc1ccc(CN2CCN(c3ccc(C(F)(F)F)cc3NC(=O)c3ccc(C4CCOCC4)o3)CC2)o1 [Compound 44, N-(2-(4-((5-methylfuran-2-yl)methyl)piperazin-1-yl)-5-(trifluoromethyl)phenyl)-5-(tetrahydro-2H-pyran-4-yl)furan-2-carboxamide] |
| 9.30 |  | O=C(Nc1cc(C(F)(F)F)ccc1N1CCN(Cc2cncs2)CC1)c1ccc(C2CCOCC2)o1 [Compound 70, 5-(tetrahydro-2H-pyran-4-yl)-N-(2-(4-(thiazol-5-ylmethyl)piperazin-1-yl)-5-(trifluoromethyl)phenyl)furan-2-carboxamide] |
| 6.84 |  | Cc1ccc(CN2CCN(c3ccc(C(F)(F)F)cc3NC(=O)c3ccccn3)CC2)o1 [Compound 40, N-(2-(4-((5-methylfuran-2-yl)methyl)piperazin-1-yl)-5-(trifluoro-methyl)phenyl)picolinamide] |
| 7.97 |  | Cc1ccc(CN2CCN(c3ccc(C(F)(F)F)cc3NC(=O)c3ccc(C)o3)CC2)o1 [Compound 46, 5-methyl-N-(2-(4-((5-methylfuran-2-yl)methyl)piperazin-1-yl)-5-(trifluoromethyl)phenyl)furan-2-carboxamide] |
| 6.01 |  | O=C(Nc1cc(C(F)(F)F)ccc1N1CCN(Cc2cocn2)CC1)c1ccc(C2CCOCC2)cn1 [Compound 59, N-(2-(4-(oxazol-4-ylmethyl)piperazin-1-yl)-5-(trifluoromethyl)phenyl)-5-(tetrahydro-2H-pyran-4-yl)picolinamide] |
| 6.41 |  | O=C(Nc1cc(C(F)(F)F)ccc1N1CCN(Cc2ccco2)CC1)c1ccncc1 [Compound 35, N-(2-(4-(furan-2-ylmethyl)piperazin-1-yl)-5-(trifluoromethyl)-phenyl)isonicotinamide] |
| 7.13 |  | O=C(Nc1cc(C(F)(F)F)ccc1N1CCN(Cc2c[nH]c3ccccc23)CC1)c1ccco1 [Compound 75, N-(2-(4-((1H-indol-3-yl)methyl)piperazin-1-yl)-5-(trifluoromethyl)phenyl)furan-2-carboxamide] |
| 8.26 |  | O=C(Nc1cc(C(F)(F)F)ccc1N1CCN(Cc2ccno2)CC1)c1ccc(C2CCOCC2)o1 [Compound 64, N-(2-(4-(isoxazol-5-ylmethyl)piperazin-1-yl)-5-(trifluoro-methyl)phenyl)-5-(tetrahydro-2H-pyran-4-yl)furan-2-carboxamide] |
| 7.68 |  | O=C(Nc1cc(C(F)(F)F)ccc1N1CCN(Cc2cocn2)CC1)c1cc2ccccc2o1 [Compound 51, N-(2-(4-(oxazol-4-ylmethyl)piperazin-1-yl)-5-(trifluoro-methyl)-phenyl)benzofuran-2-carboxamide] |
| 6.98 |  | O=C(Nc1cc(C(F)(F)F)ccc1N1CCN(Cc2cocn2)CC1)c1cccc(C2CCOCC2)n1 [Compound 58, N-(2-(4-(oxazol-4-ylmethyl)piperazin-1-yl)-5-(trifluoromethyl)phenyl)-6-(tetrahydro-2H-pyran-4-yl)picolinamide] |
| 9.15 | improved potency | O=C(Nc1cc(C(F)(F)F)ccc1N1CCN(Cc2ccoc2)CC1)c1ccc(C2CCOCC2)o1 [Compound 43, N-(2-(4-(furan-3-ylmethyl)piperazin-1-yl)-5-(trifluoromethyl)phenyl)-5-(tetrahydro-2H-pyran-4-yl)furan-2-carboxamide] |
| 6.50 |  | O=C(Nc1cc(C(F)(F)F)ccc1N1CCN(Cc2ccno2)CC1)c1ccco1 [Compound 63, N-(2-(4-(isoxazol-5-ylmethyl)piperazin-1-yl)-5-(trifluoro-methyl)phenyl)furan-2-carboxamide] |
| 7.66 |  | O=C(Nc1cc(C(F)(F)F)ccc1N1CCN(Cc2ccoc2)CC1)c1ccco1 [Compound 47, N-(2-(4-(furan-3-ylmethyl)piperazin-1-yl)-5-(trifluoromethyl)phenyl)furan-2-carboxamide] |
